Series [1] in a line: Dynamic Vapor Sorption (DVS), moisture cycles 0-90-0% RH. The class given is physicochemical.
Series [2] is described as follows: Dynamic Vapor Sorption (DVS), moisture cycle 0-80-0% RH. The class given is physicochemical.
Series [3] can be described thus: physchem. The note with it: water.

What is called solubility is how much of the substance goes into solution per volume. Read a low solubility as a poorly soluble substance.

Turning to `CN(C)C(=O)c1cc2cnc(Nc3ccc(N4CCNCC4)cn3)nc2n1C1CCCC1.O=C(O)CCC(=O)O` [Compound of Formula (II), 7-Cyclopentyl-N,N-dimethyl-2-(5-(piperazin-1-yl)pyridin-2-ylamino)-7H-pyrrolo[2,3-d]pyrimidine-6-carboxamide succinate], the moisture absorbed result in series [1] (at 90% RH, in each cycle (0 to 90 to 0% RH, two cycles)) was “up to 2%”; in series [2] (at 80% RH (0 to 80 to 0% RH cycle)), “up to 0.5%”. The “physical form after exposure” value in series [1] (upon exposure to 90% RH (XRPD, DSC, TGA)) was “change in physical form”; in series [2] (upon exposure to 80% RH (XRPD)) it was “stability of the physical form”. Moreover, the “Change In Mass (%) Hysteresis” value in series [2] (Cycle 1, target RH 50.0%) is recorded as 0.0074%; in series [2] (Cycle 1, target RH 60.0%), 0.0140%. Further, the “Change In Mass (%) Desorption” value in series [2] (Cycle 1, target RH 80.0%) turned out to be 0.5200%.
With `CN(C)C(=O)c1cc2cnc(Nc3ccc(N4CCNCC4)cn3)nc2n1C1CCCC1.O=C(O)CCC(=O)O` [hydrate form, succinate salt of 7-Cyclopentyl-2-(5-piperazin-1-yl-pyridin-2-ylamino)-7H-pyrrolo[2,3-d]pyrimidine-6-carboxylic acid dimethylamide], the solubility in series [3] (solubility) was less than 0.5 mg/mL.
In turn, `CN(C)C(=O)c1cc2cnc(Nc3ccc(N4CCNCC4)cn3)nc2n1C1CCCC1.O=C(O)CCC(=O)O` [non-hydrate form, succinate salt of 7-Cyclopentyl-2-(5-piperazin-1-yl-pyridin-2-ylamino)-7H-pyrrolo[2,3-d]pyrimidine-6-caboxylic acid dimethylamide] came in with a solubility in series [3] (solubility in water) of roughly 30 mg/mL.

The values are drawn from patent US9868739B2, “Salt(s) of 7-cyclopentyl-2-(5-piperazin-1-yl-pyridin-2-ylamino)-7H-pyrrolo[2,3-d]pyrimidine-6-carboxylic acid dimethylamide and processes of making thereof” (Novartis AG, priority 2010, dated 2018).
